Measurements as given in patent US12533348B2, “Ferroportin-inhibitors for the use in the treatment of transfusion-dependent beta-thalassemia (TDT)” (Vifor (International) AG, priority 2019, dated 2026).
Where “and” joins values, the source holds several entries; their conditions need not be identical. Identical values can stand only once.

What was measured:
[1] = test system: Hbb^th3/+ mouse model of β-thalassemia intermedia; assay: Combination study: hemoglobin (HemoCue photometer); assay type: in vivo; details: th3/+ mice, DFX 30 mg/kg QD, Fpn127 120 mg/kg QD p.o., mean
Experimental: (§1) One day after switching to lid a blood sample was taken by tail vein incision to determine the baseline Hb levels. Hb was measured using a HaemoCue® device. Hb was also measured on days 8, 15, and 22 in the morning before dosing. The animals were dosed p.o. D with 30 mg/kg DFX in 30% Kolliphor, 120 mg/kg Fpn127 in 0.5% C, or both for a total of 17 doses during the 23 days of study. 30% Kolliphor and 0.5% C were dosed as vehicles. The dose of DFX was administered at the beginning of the dark cycle (active phase) at 9:00 followed by 3 h of access to lid. Then, mice were dosed with Fpn127 (or 0.5% C) and were given access to sd for a 6 h period before switched back to lid. On the dosing was paused and mi had access to lid ad libitum.
Hb was measured on days 1, 8, 15 and 22. Individual Hb values were determined at the starting day of the experiment (day 1) and weekly thereafter during the experimental phase in the morning before the first daily dose. A blood sample was taken by tail vein incision and Hb was measured using a HemoCue® DM201 Hb photometer.

[2] = Combination study DFX/Fpn127: clinical observations, mortality and body weight; assay type: in vivo, mouse; details: for BW: th3/+ mice, mean
Experimental: as §1
Animals and their cages were checked daily by the experimenter during the study on working days. During the experimental phase, animals were weighted minimum once per week and scored according to their clinical symptoms: BW, general behavior and activity, appearance of hair coat, eyes, and nose. Clinical observations were recorded when present on separate score sheets.
BW was recorded once before the start of the experimental phase on day −1. During the experimental phase, individual BW were recorded 1 to 2 times per week to calculate the dosing volume and to monitor weight loss.

[3] = test system: Hbb^th3/+ mouse model of β-thalassemia intermedia; assay: Combination study: organ weights and tissue iron (ICP-OES) in liver, spleen, kidney; details: for relative spleen weight: percent of body weight; for relative spleen weight / kidney Fe conc. / liver Fe conc. / spleen Fe conc.: th3/+ mice, DFX 30 mg/kg QD, Fpn127 120 mg/kg QD p.o., end of study (day 23), mean
Experimental: The aim of this study was to test whether the concurrent use of the iron chelator DFX administered once daily (QD) alone at 30 mg/kg or in combination with Fpn127 administered QD at 120 mg/kg for 3 weeks is causing any therapeutic interactions in a mouse model of β-thalassemia intermedia (Hbb^th3/+; B6; 129P—b1tm1Unc-b2tm1Unc/J, Jackson Laboratories, Stock Number: 002683).
Animals were euthanized 1 h after the last dose of DFX on study day 23 (dosing day 17).
On the final study day (day 23), spleen, liver, and kidneys were collected and snap frozen in liquid nitrogen for further analysis, as outlined below. Wet weight of spleen, liver, and kidneys were recorded.
Content of total Fe was determined in pieces of spleens, livers, and kidneys by ICP-OES in the Analytical Development group of Vifor (International) Ltd., St. Gallen.
Individual wet weights of organs were recorded. Individual values of total Fe were measured in livers, spleens, and kidneys. Individual values of total Fe content and concentration were calculated. Mean±SD of total Fe concentration and content in livers, spleens, and kidneys was calculated for each group.

[4] = test system: Hbb^th3/+ mouse model of β-thalassemia intermedia; assay: Combination study: flow cytometric analysis of intracellular ROS, mitochondria and PS exposure in mature RBC; assay type: in vivo; details: th3/+ mice, all animals; mature RBCs in whole blood at end of study (pre-terminally d22)
Experimental: In peripheral blood taken on day 22 by tail vein incision, ROS were detected with the indicator chloromethyl-2′,7′-dichlorodihydrofluorescein diacetate (CM-H2DCFDA, Invitrogen), the presence of mitochondria was detected with MitoTracker Deep Red FM (Invitrogen), and PS exposure was detected using the Annexin V Apoptosis Detection Kit (Invitrogen) in mature RBC labelled with Ter119 and CD71 antibodies.
For all analysis, cells were analyzed on a CANTOII cytometer (BD Biosciences) and data were analyzed using FlowJo® software (FlowJo, LLC, version 10.2).

[5] = test system: Hbb^th3/+ mouse model of β-thalassemia intermedia; assay: Combination study: erythroid differentiation stages in spleen by flow cytometry (Ter119/CD44/CD71); assay type: in vivo; details: percent of parent Ter119+ spleen cells; female th3/+ mice; DFX 30 mg/kg QD, Fpn127 120 mg/kg QD p.o.; end of study; mean
Description: Distinct stages of erythroid cell differentiation in spleens of female mice were identified by flow cytometry (CANTOII cytometer, BD Biosciences) using PE-conjugated rat anti-mouse CD71 (transferrin receptor-1, eBioscience, Cat. 12-0711), APC-conjugated rat anti-mouse Ter119 (erythroid lineage marker, eBioscience, Cat. 17-5921) and APC-Cy7-conjugated rat anti-mouse CD44 (adhesion molecule that progressively decreases on the surface of developing erythroid cells, BioLegend. Cat. 103028) antibodies. Data were analyzed using FlowJo® software (FlowJo. LLC, version 10.1) Serum Parameters

[6] = test system: Hbb^th3/+ mouse model of β-thalassemia intermedia; assay: Combination study: serum EPO (DuoSet ELISA); assay type: in vivo; details: serum; th3/+ mice; day 23; DFX 30 mg/kg QD, Fpn127 120 mg/kg QD p.o.; all animals; mean
Experimental: On day 23 (study end) 1 hour after dosing blood was collected by retro-orbital bleeding from pre-terminally anesthetized mice into BD Microtainer Tubes (Cat. 365967 and 365975) for determination of serum iron, transferrin, erythropoietin and compound exposure. Anesthetized animals were subsequently euthanized by cervical dislocation.
[formula] Serum EPO was measured using a mouse-specific DuoSet ELISA according to the manufacturer's instructions (R&D Systems, Cat. DY959). Plasma concentrations of Fpn127 and DFX were measured at GVK Biosciences, Hyderabad, IN. Flow Cytometric Analysis of Intracellular ROS, Mitochondria, and PS Exposure

O=C(O)c1ccc(-n2nc(-c3ccccc3O)nc2-c2ccccc2O)cc1 [DFX, deferasirox, reference compound]
Hb concentration ([1]; day 1 (before dosing), all animals): 84 g/L
Hb concentration ([1]; day 1 (before dosing), females): 86 ± 2 g/L and 86 g/L
Hb concentration ([1]; day 1 (before dosing), males): 82 ± 3 g/L and 82 g/L
Hb concentration ([1]; day 8, all animals): 98 g/L
Hb concentration ([1]; day 8, females): 99 g/L
Hb concentration ([1]; day 8, males): 96 g/L
Hb concentration ([1]; day 15, all animals): 81 g/L
Hb concentration ([1]; day 15, females): 82 g/L
Hb concentration ([1]; day 15, males): 80 g/L
Hb concentration ([1]; day 22, all animals): 86 g/L
Hb concentration ([1]; day 22, females): 85 g/L
Hb concentration ([1]; day 22, males): 88 g/L
tolerability / clinical symptoms ([2]; Hbb^th3/+ mice, DFX 30 mg/kg QD, Fpn127 120 mg/kg QD p.o., 17 doses in 23 days): generally well tolerated
BW by the end of the study vs vehicle treated Hbb^th3/+ mice ([2]; males): slightly but significantly lower BW
BW ([2]; DFX 30 mg/kg QD, Fpn127 120 mg/kg QD p.o., day 1, all animals): 21.5 g
BW ([2]; DFX 30 mg/kg QD, Fpn127 120 mg/kg QD p.o., day 1, females): 19.2 ± 1.3 g and 19.2 g
BW ([2]; DFX 30 mg/kg QD, Fpn127 120 mg/kg QD p.o., day 1, males): 23.7 ± 1.3 g and 23.7 g
BW ([2]; DFX 30 mg/kg QD, Fpn127 120 mg/kg QD p.o., day 3, all animals): 23.2 g
BW ([2]; DFX 30 mg/kg QD, Fpn127 120 mg/kg QD p.o., day 3, females): 20.9 g
BW ([2]; DFX 30 mg/kg QD, Fpn127 120 mg/kg QD p.o., day 3, males): 25.6 g
BW ([2]; DFX 30 mg/kg QD, Fpn127 120 mg/kg QD p.o., day 7, all animals): 23.2 g
BW ([2]; DFX 30 mg/kg QD, Fpn127 120 mg/kg QD p.o., day 7, females): 21.0 g
BW ([2]; DFX 30 mg/kg QD, Fpn127 120 mg/kg QD p.o., day 7, males): 25.4 g
BW ([2]; DFX 30 mg/kg QD, Fpn127 120 mg/kg QD p.o., day 10, all animals): 22.9 g
BW ([2]; DFX 30 mg/kg QD, Fpn127 120 mg/kg QD p.o., day 10, females): 20.6 g
BW ([2]; DFX 30 mg/kg QD, Fpn127 120 mg/kg QD p.o., day 10, males): 25.2 g
BW ([2]; DFX 30 mg/kg QD, Fpn127 120 mg/kg QD p.o., day 14, all animals): 23.0 g
BW ([2]; DFX 30 mg/kg QD, Fpn127 120 mg/kg QD p.o., day 14, females): 20.7 g
BW ([2]; DFX 30 mg/kg QD, Fpn127 120 mg/kg QD p.o., day 14, males): 25.2 g
BW ([2]; DFX 30 mg/kg QD, Fpn127 120 mg/kg QD p.o., day 17, all animals): 22.8 g
BW ([2]; DFX 30 mg/kg QD, Fpn127 120 mg/kg QD p.o., day 17, females): 20.4 g
BW ([2]; DFX 30 mg/kg QD, Fpn127 120 mg/kg QD p.o., day 17, males): 25.2 g
BW ([2]; DFX 30 mg/kg QD, Fpn127 120 mg/kg QD p.o., day 22, all animals): 23.3 g
BW ([2]; DFX 30 mg/kg QD, Fpn127 120 mg/kg QD p.o., day 22, females): 20.8 g
BW ([2]; DFX 30 mg/kg QD, Fpn127 120 mg/kg QD p.o., day 22, males): 25.9 g
effect on relative spleen weight in th3/+ animals ([3]; end of study d23 (FIG. 4)): no effect
relative spleen weight ([3]; all animals): 1.98±0.26% and 1.98%
relative spleen weight ([3]; females): 2.17%
relative spleen weight ([3]; males): 1.79%
kidney Fe conc. ([3]; all animals): 125.1 ± 22.2 µg/g and 125.1 µg/g
liver Fe conc. ([3]; all animals): 196.3 ± 62.5 µg/g and 196.3 µg/g
spleen Fe conc. ([3]; all animals): 1553.0 ± 144.7 µg/g and 1553.0 µg/g
kidney Fe conc. ([3]; females): 126.6 µg/g
liver Fe conc. ([3]; females): 241.2 µg/g
spleen Fe conc. ([3]; females): 1511.0 µg/g
kidney Fe conc. ([3]; males): 123.6 µg/g
liver Fe conc. ([3]; males): 151.5 µg/g
spleen Fe conc. ([3]; males): 1602.0 µg/g
% Annex in V-positive RBCs (mean) [4]: 0.47%
% Mito Tracker-positive RBCs (mean) [4]: 0.56%
% ROS-positive RBCs (mean) [4]: 41.56%
basophilic erythroblasts, frequency of parent [5]: 8.21%
mature erythrocytes, frequency of parent [5]: 32.35%
orthochromatic erythroblasts, frequency of parent [5]: 23.48%
polychromatic erythroblasts, frequency of parent [5]: 23.90%
pro-erythroblasts, frequency of parent [5]: 3.29%
EPO [6]: 5277 ± 1710 pg/mL and 5277 pg/mL
